Experimental data reported in PubChem BioAssay (NCI).
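Test compounds were applied to cells in 96-well plates for 48 hours at 5 doses. At the TGI there is no net growth.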

Columns and labels:
Assay in all cases: inhibition of tumour cell growth, NCI panel, 48 h
[1] = test system: A498 renal
[2] = test system: A549 NSCLC
[3] = test system: ACHN renal
[4] = test system: BT-549 breast
[5] = test system: CAKI-1 renal
[6] = test system: CCRF-CEM leukemia
[7] = test system: COLO 205 colon
[8] = test system: EKVX NSCLC
[9] = test system: HCC-2998 colon
[10] = test system: HCT-116 colon
[11] = test system: HCT-15 colon
[12] = test system: HOP-62 NSCLC
[13] = test system: HOP-92 NSCLC
[14] = test system: HS 578T breast
[15] = test system: HT29 colon
[16] = test system: K-562 leukemia
[17] = test system: KM12 colon
[18] = test system: LOX IMVI melanoma
[19] = test system: M14 melanoma
[20] = test system: MALME-3M melanoma
[21] = test system: MCF7 breast
[22] = test system: MDA-MB-231 breast
[23] = test system: MDA-MB-435
[24] = test system: MDA-N
[25] = test system: MOLT-4 leukemia
[26] = test system: NCI-H226 lung
[27] = test system: NCI-H23 lung
[28] = test system: NCI-H522 lung
[29] = test system: NCI/ADR-RES ovarian
[30] = test system: OVCAR-4 ovarian
[31] = test system: OVCAR-5 ovarian
[32] = test system: OVCAR-8 ovarian
[33] = test system: PC-3 prostate
[34] = test system: RXF 393 renal
[35] = test system: SF-268 CNS
[36] = test system: SF-295 CNS
[37] = test system: SK-MEL-28 melanoma
[38] = test system: SK-MEL-5 melanoma
[39] = test system: SK-OV-3 ovarian
[40] = test system: SN12C renal
[41] = test system: SNB-19 CNS
[42] = test system: SNB-75 CNS
[43] = test system: SR leukemia
[44] = test system: T-47D breast
[45] = test system: TK-10 renal
[46] = test system: U251 CNS
[47] = test system: UACC-257 melanoma
[48] = test system: UACC-62 melanoma
[49] = test system: UO-31 renal
[50] = test system: 786-0 renal
[51] = test system: DU-145 prostate
[52] = test system: HL-60(TB) leukemia
[53] = test system: NCI-H460 lung
[54] = test system: OVCAR-3 ovarian
[55] = test system: RPMI-8226 leukemia
[56] = test system: SF-539 CNS
[57] = test system: SK-MEL-2 melanoma
[58] = test system: SW-620 colon

COc1cc(C2S/C(=C/c3ccccc3)C(=O)N2c2cccc(NC(C)=O)c2)cc(OC)c1OC (stereo not given)
TGI [1]: 93.7 µM
TGI [2]: > 100 µM
TGI [3]: > 100 µM
TGI [4]: > 100 µM
TGI [5]: > 100 µM
TGI [6]: > 100 µM
TGI [7]: 86.6 µM
TGI [8]: 53.2 µM
TGI [9]: > 100 µM
TGI [10]: 37.2 µM
TGI [11]: > 100 µM
TGI [12]: > 100 µM
TGI [13]: 85.7 µM
TGI [14]: 60.7 µM
TGI [15]: 59.7 µM
TGI [16]: > 100 µM
TGI [17]: 82 µM
TGI [18]: 54.7 µM
TGI [19]: > 100 µM
TGI [20]: 98.3 µM
TGI [21]: > 100 µM
TGI [22]: 50.7 µM
TGI [23]: 47.2 µM
TGI [24]: > 100 µM
TGI [25]: > 100 µM
TGI [26]: > 100 µM
TGI [27]: > 100 µM
TGI [28]: 47.1 µM
TGI [29]: > 100 µM
TGI [30]: > 100 µM
TGI [31]: > 100 µM
TGI [32]: > 100 µM
TGI [33]: 48.9 µM
TGI [34]: > 100 µM
TGI [35]: > 100 µM
TGI [36]: > 100 µM
TGI [37]: > 100 µM
TGI [38]: > 100 µM
TGI [39]: > 100 µM
TGI [40]: > 100 µM
TGI [41]: > 100 µM
TGI [42]: 28 µM
TGI [43]: > 100 µM
TGI [44]: 68.6 µM
TGI [45]: > 100 µM
TGI [46]: 50.8 µM
TGI [47]: > 100 µM
TGI [48]: > 100 µM
TGI [49]: > 100 µM

CC(=O)Nc1cccc(N2C(=O)/C(=C\c3cccc(Oc4ccccc4)c3)SC2c2ccccc2)c1 (stereo not given)
TGI [50]: > 100 µM
TGI [1]: > 100 µM
TGI [2]: > 100 µM
TGI [3]: > 100 µM
TGI [4]: > 100 µM
TGI [5]: > 100 µM
TGI [6]: 51.6 µM
TGI [7]: > 100 µM
TGI [51]: > 100 µM
TGI [8]: > 100 µM
TGI [9]: > 100 µM
TGI [10]: > 100 µM
TGI [11]: > 100 µM
TGI [52]: > 100 µM
TGI [12]: > 100 µM
TGI [13]: > 100 µM
TGI [14]: > 100 µM
TGI [15]: > 100 µM
TGI [16]: > 100 µM
TGI [17]: > 100 µM
TGI [18]: > 100 µM
TGI [19]: > 100 µM
TGI [20]: > 100 µM
TGI [21]: > 100 µM
TGI [22]: > 100 µM
TGI [23]: > 100 µM
TGI [24]: > 100 µM
TGI [25]: > 100 µM
TGI [26]: > 100 µM
TGI [27]: > 100 µM
TGI [53]: > 100 µM
TGI [28]: > 100 µM
TGI [29]: > 100 µM
TGI [54]: > 100 µM
TGI [30]: > 100 µM
TGI [31]: > 100 µM
TGI [32]: > 100 µM
TGI [55]: 89 µM
TGI [34]: > 100 µM
TGI [35]: > 100 µM
TGI [36]: > 100 µM
TGI [56]: > 100 µM
TGI [57]: > 100 µM
TGI [37]: > 100 µM
TGI [38]: > 100 µM
TGI [39]: > 100 µM
TGI [40]: > 100 µM
TGI [41]: > 100 µM
TGI [43]: 47.1 µM
TGI [58]: > 100 µM
TGI [44]: > 100 µM
TGI [45]: > 100 µM
TGI [46]: > 100 µM
TGI [47]: > 100 µM
TGI [48]: > 100 µM
TGI [49]: > 100 µM
